Data set [1] is described as follows: Kinetic solubility in liquid formulation containing mannitol and glycine buffer. The format is physicochemical. To be noted: 4% mannitol; for Solubility (kinetic): 50 mM glycine sodium; for solubility kinetic at 1 day / solubility kinetic at 2 day / solubility kinetic at 3 day / solubility kinetic at 4 day / solubility kinetic at 5 day: IV vehicle: 50 mM glycine sodium, thermodynamic from solid; for solubility kinetic at 5 day: pH 8.8, Day 5. The procedure:
Three solid state forms of Elinogrel were tested: i.e., Form B (mono potassium hemi hydrate), Form C (hemi potassium trihydrate), and the Free Acid form. Excess Elinogrel (i.e., ˜10 mg/ml when fully dissolved) was equilibrated with the IV vehicle composed of 50 mM glycine sodium and 4% mannitol at RT or refrigerated. The pH was monitored and adjusted to the target range using NaOH or HCl.

Data set [2] is described as follows: Solubility in co-solvents (propylene glycol, ethanol). The following applies: propylene glycol/ethanol co-solvent mixture, aqueous with cosolvent or surfactant or cyclodextrin, thermodynamic from solid, 10% EtOH, no pH adjustment, 25° C. The format is physicochemical. The method, then: Excess Elinogrel potassium solids were added into ½ mL of 25% or 75% propylene glycol with 10% ethanol and the suspensions were equilibrated for 12 days at ambient temperature. Solubilities were determined by analyzing concentration of supernatants via HPLC.

Data set [3] in a line: pKa, logP and logD of Elinogrel. The format is physicochemical.
Data set [4] in a line: Aqueous solubility of the free acid form. The format is physicochemical. The following applies: aqueous medium, aqueous buffer; pH 1.0-7.4.
Data set [5] in a line: Thermodynamic solubility at different pH at 37° C. The format is physicochemical. The following applies: aqueous slurry, thermodynamic from solid. The method, then: The thermodynamic solubility of Elinogrel potassium salt and free acid in pH range of 1-10 at 37° C. was also determined. Excess Elinogrel free acid or potassium salt (start from Form B) was equilibrated with its aqueous slurries at various pH under constant agitation. Different amounts of NaOH or HCl solution were used to adjust pH. Solubility was determined after 3 days by analyzing the elinogrel concentration in supernatant of the slurry after ultracentrifugation.

Data set [6] has as its system Male New Zealand White rabbits. As to the kind of experiment: Rabbit vein and tissue irritation study. The format is in vivo. The following applies: 4% mannitol, perivascular and subcutaneous, 5 days. The procedure: Male New Zealand White rabbits were utilized in this study. Rabbits received 3 injections:
Intravenous (IV): 1.0 mL in left marginal ear vein;
Perivascular: 0.5 mL near the right marginal ear vein; and
Subcutaneous (SC): 1.0 mL in the scapular region of the dorsal back.
There were four rabbits per each of the following dose groups.
Normal Saline: 0.9% sodium chloride
Vehicle: 10 mM sodium glycine, 4% mannitol, pH 9.31
Elinogrel (Na salt) at 16.7 mg/mL in 10 mM glycine, 4% mannitol, pH 9.33
Elinogrel (K salt) at 4.0 mg/mL in 50 mM glycine, 4% mannitol, pH 9.38
On day 5, tissues (ears and skin) were harvested and processed for histological examination of the injection site.

Data set [7] can be described thus: Solubility in sodium sulfobutyl ether β-cyclodextrin solutions over time. The format is physicochemical. The procedure: A set of samples in 0, 10, 20, and 40% sodium sulfobutyl ether β-cyclodextrin with no pH adjustment were equilibrated for 12 days and concentrations of supernatants at 1, 3, 6, and 12 days were determined.
The solubility results of Elinogrel potassium at various sodium sulfobutyl ether β-cyclodextrin concentrations as a function of time (without pH adjustment) are shown in Table 4. […] There is a continued decrease of solubility overtime, before it approaching plateau at each SBE-β-CD level.

The conditions of data set [8]: pH 9.3.
Procedure: (§1) The white to off-white wet solids were collected by centrifugation at 13,000 rpm for 5 min and supernatant removal.
The nature of the next data set: physchem. To be noted: thermodynamic from solid, S (solubility).

The source of these data is patent publication US20130131089A1, “DOSAGE FORMS OF ELINOGREL AND METHODS OF INJECTABLE ADMINISTRATION THEREOF” (Portola Phamaceuticals Inc., priority 2010, published 2013).

Molecules are shown by their SMILES. ≈ marks a conversion by molar mass, not a printed value. Read-outs that look alike come from different tables or passages of the source. Bounds are passed on as bounds.

For orientation: solubility (kinetic) means the concentration staying in solution when a stock, usually in DMSO, is diluted into the medium. As usually defined, the solubility is the dissolved amount per volume that the medium holds. One may read the pKa as the pH at which an ionisable group is half protonated. Lower therefore signals a group that gives up its proton readily. One may read the solubility (thermodynamic) as solubility found after equilibrating the solid with the medium.

Procedure for physchem: as §1

For `CNc1cc2[nH]c(=O)n(-c3ccc(NC(=O)NS(=O)(=O)c4ccc(Cl)s4)cc3)c(=O)c2cc1F` [Elinogrel potassium (Form B)], the “Solubility (kinetic)” value is listed as 5.93 mg/mL in data set [1] (RT, pH 8.8, Day 1, listed as Elinogrel K salt-Form B, potassium salt); 5.20 mg/mL in [1] (RT, pH 8.8, Day 2, listed as Elinogrel K salt-Form B, potassium salt); 1.75 mg/mL in [1] (RT, pH 8.8, Day 3, listed as Elinogrel K salt-Form B, potassium salt); 2.08 mg/mL in data set [1] (RT, pH 8.8, Day 4, listed as Elinogrel K salt-Form B, potassium salt); 1.37 mg/mL in data set [1] (RT, pH 8.8, Day 5, listed as Elinogrel K salt-Form B, potassium salt); 5.89 mg/mL in data set [1] (RT, pH 9, Day 1, listed as Elinogrel K salt-Form B, potassium salt). Moreover, the “Solubility (kinetic)” value in data set [1] (RT, pH 9, Day 2, listed as Elinogrel K salt-Form B, potassium salt) amounted to 3.56 mg/mL; in [1] (RT, pH 9, Day 3, listed as Elinogrel K salt-Form B, potassium salt), 1.78 mg/mL; in data set [1] (RT, pH 9, Day 4, listed as Elinogrel K salt-Form B, potassium salt), 1.95 mg/mL; in [1] (RT, pH 9, Day 5, listed as Elinogrel K salt-Form B, potassium salt), 1.29 mg/mL. This compound gave a kinetic solubility at 1 day in data set [1] (5 °C, pH 8.8, aqueous buffer, 5° C., pH 8.8, Day 1) of 5480 µg/mL. Moreover, the solubility (kinetic) at 2 day in data set [1] (5 °C, pH 8.8, aqueous buffer, 5° C., pH 8.8, Day 2) came to 4020 µg/mL. The compound also showed a solubility (kinetic) at 3 day in data set [1] (5 °C, pH 8.8, aqueous buffer, 5° C., pH 8.8, Day 3) of 1580 µg/mL. Besides, in data set [1] (5 °C, pH 8.8, aqueous buffer, 5° C., pH 8.8, Day 4), the solubility (kinetic) at 4 day came out at 1580 µg/mL. For the same compound, the kinetic solubility at 5 day in data set [1] (5 °C, pH 8.8, aqueous buffer, 5° C.) came to 1110 µg/mL. For the same compound, the solubility at 12 d in data set [2] (25% PG, pH 7.0, read-out: S (solubility)) was 8 mg/mL; in [2] (75% PG, pH 7.3, read-out: S (solubility)), 21 mg/mL.
In the case of `CNc1cc2[nH]c(=O)n(-c3ccc(NC(=O)NS(=O)(=O)c4ccc(Cl)s4)cc3)c(=O)c2cc1F` [Elinogrel, [4-(6-Fluoro-7-methylamino-2,4-dioxo-1,4-dihydro-2H-quinazolin-3-yl)-phenyl]-5-chloro-thiophen-2-yl-sulfonylurea], the logP entry in [3] is given as “about 2.5”. The compound also had a pKa in [3] of about 3.3. Besides, the logD result in data set [3] (pH 7.4) is on record as “about −1.6”. Further, the solubility in data set [4] is under 100 µg/mL. Besides, the “Solubility (kinetic)” value in [1] (RT, pH 9, Day 5, listed as Elinogrel free acid-Form B) is given as 4.05 mg/mL (≈ 7730 µM). Besides, the kinetic solubility at 1 day in data set [1] (pH 9, aqueous buffer, RT, pH 9, Day 1) amounted to 3140 µg/mL (≈ 5990 µM). Also, in data set [1] (pH 9, aqueous buffer, RT, pH 9, Day 2), the kinetic solubility at 2 day worked out at 3230 µg/mL (≈ 6160 µM). In addition, the solubility (kinetic) at 3 day in data set [1] (pH 9, aqueous buffer, RT, pH 9, Day 3) was 3330 µg/mL (≈ 6360 µM). This compound also gave a kinetic solubility at 4 day in data set [1] (pH 9, aqueous buffer, RT, pH 9, Day 4) of 2650 µg/mL (≈ 5060 µM). Further, the thermodynamic solubility at 3 days in [5] (aqueous buffer, pH 3.00) is 0.057 µg/mL (≈ 0.109 µM); in [5] (aqueous buffer, pH 8.11) it was 418 µg/mL (≈ 799 µM); in [5] (pH 1.1, simulated gastric fluid, pH 1.10), 0.03 µg/mL (≈ 0.0573 µM); in [5] (pH adjusted with NaOH or HCl, aqueous buffer, pH 5.97), 0.544 µg/mL (≈ 1.04 µM); in [5] (pH adjusted with NaOH or HCl, aqueous buffer, pH 6.61) it was 2.17 µg/mL (≈ 4.14 µM); in data set [5] (pH adjusted with NaOH or HCl, aqueous buffer, pH 7.22) it was 46.6 µg/mL (≈ 88.9 µM). In addition, the solubility (thermodynamic) at 3 days in data set [5] (pH adjusted with NaOH or HCl, pH 4.2, aqueous buffer, pH 4.20) is 0.022 µg/mL (≈ 0.042 µM); in data set [5] (simulated gastric fluid, pH 1.88), 0.002 µg/mL (≈ 0.00382 µM). Besides, the tolerability of injection result is “well tolerated” in [6] (K salt at 4.0 mg/mL in 50 mM glycine, pH 9.38, intravenous) and “well tolerated” in data set [6] (Na salt at 16.7 mg/mL in 10 mM glycine, pH 9.33, intravenous).
Consider `CNc1cc2[nH]c(=O)n(-c3ccc(NC(=O)NS(=O)(=O)c4ccc(Cl)s4)cc3)c(=O)c2cc1F` [Elinogrel potassium (Form C)], for which the “Solubility (kinetic)” value was found to be 2.36 mg/mL in data set [1] (RT, pH 8.8, Day 1, listed as Elinogrel K-Form C, potassium salt) and 1.92 mg/mL in data set [1] (RT, pH 8.8, Day 2, listed as Elinogrel K-Form C, potassium salt). Also, in data set [1] (pH 8.8, aqueous buffer, RT, pH 8.8, Day 3), the solubility (kinetic) at 3 day worked out at 1790 µg/mL. Further, in [1] (pH 8.8, aqueous buffer, RT, pH 8.8, Day 4), the kinetic solubility at 4 day was 2150 µg/mL. For the same compound, in [1] (pH 8.8, aqueous buffer, RT), the kinetic solubility at 5 day worked out at 1450 µg/mL. Also, the “solubility in 20% sodium sulfobutyl ether β-cyclodextrin relative to that in water” value in data set [7] (20% sodium sulfobutyl ether β-cyclodextrin vs water) is “approximately 4 fold”. Moreover, the Elinogrel potassium conc. in data set [7] (20% sodium sulfobutyl ether β-cyclodextrin, 12 d, no pH adjustment (pH~7), potassium salt) amounted to 11.5 mg/mL.
For `CNc1cc2[nH]c(=O)n(-c3ccc(NC(=O)NS(=O)(=O)c4ccc(Cl)s4)cc3)c(=O)c2cc1F` [Elinogrel sodium hydrate], the “S (solubility)” value in [8] amounted to 17 mg/mL. Also, the solubility in “physchem” (4 °C, water) is 13 mg/mL; in the data set “physchem” (pH 9.2, water), 23 mg/mL; in the data set “physchem” (pH 9.3, aqueous buffer) it was 16 mg/mL.
